Active and inactive are the calls of the source.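 How the source made its calls: active means compounds whose mean EC50, the dose giving half the maximal reporter activation, is at or below a set limit; inactive means the rest.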

For 95 compounds, EC50 results are on record in PubChem BioAssay AID489024 (Sanford-Burnham Center for Chemical Genomics, 2010).

This experiment has as its target CHO-CHOP luciferase reporter, UPR activation, luminescence. The experiment is described as follows: CHOP reporter induction, apoptotic UPR branch – CHO-CHOP cells, luciferase luminescence, confirmation (AID 489024).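 Further: compounds added alone to reporter cells with no tunicamycin stress co-treatment.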
A word on the EC50: it is the midpoint of the concentration-response curve. Take `Oc1ccc(/C=N/Nc2cc(N3CCCC3)nc(N3CCCC3)n2)cc1O`: the EC50 is 13.2 µM.
The value for `Oc1[nH]c2ccc(Br)cc2c1N=NC(=S)N1CCOCC1` was 4.28 µM; that for `CCCCCCCCCn1c2c(c(=N)c3c1CCC3)CCCC2` was 11.3 µM; that for `Cc1ccc(F)cc1N=Cc1c(O)c2ccccc2oc1=O` was 6.17 µM.
The value for `Cc1[nH]c2ccccc2c1CN1CCC(Cc2ccccc2)CC1` was 11.1 µM; that for `Oc1c(C(c2ccccc2Cl)N2CCCC2)ccc2cccnc12` (stereo not given) was 5.76 µM; that for `COc1ccc(N=c2oc3c(OC)cccc3cc2C(=O)NCc2ccco2)c(OC)c1` was “inactive”.
Take `Cc1ccc(-c2nc(N/N=C/c3cccc([N+](=O)[O-])c3)c3ccccc3n2)cc1`: the EC50 result was “inactive”.
Turning to `Cc1cc(C(=O)CCl)c(C)n1-c1cccc(S(=O)(=O)N2CCOCC2)c1`, the EC50 was 7.44 µM.
For `CCNc1ccccc1CP(=O)(c1ccccc1)c1ccccc1O` (stereo not given) the value was 15 µM.
The value for `Cc1cc(C(=O)CCl)c(C)n1Cc1ccco1` was 7.35 µM; that for `O=C(CSc1ccccn1)Nc1nonc1[N+](=O)[O-]` was 19.1 µM.
The value for `CCn1c(O)c(C2=c3ccccc3=NC2=O)c2cc(Br)ccc21` was 15.4 µM; that for `O=C(/C(=C/c1ccc(Cl)cc1)c1nc2ccccc2[nH]1)c1cccs1` was 4.6 µM.
On to `CC(C)CNC(=O)c1coc(=O)c(Br)c1`, for which the EC50 was 12 µM.
For `O=C(CSc1ccc2ccccc2c1)NCCc1ccc(O)c(O)c1`, the EC50 was 8.44 µM.
The value for `Cc1ccnc(Nc2nc(-c3ccc(O)c(O)c3)cs2)c1` was 1.34 µM; that for `CN(C)S(=O)(=O)c1cccc(NC(=O)CSc2cccc3cccnc23)c1` was 7.59 µM; that for `O=S1(=O)Nc2c(ccc3cccnc23)-c2ccccc21` was 3.42 µM.
The value for `CCc1nnc(NC(=O)CSc2nc(-c3ccccc3)cc(-c3ccc(OC)cc3)c2C#N)s1` was 13 µM.
The value for `COc1cc(/C=C/C(=O)c2ccc3c(c2)OCCO3)cc(Br)c1OCC(=O)N(C)C` was 7 µM; that for `O=C(C[C@H]1C[C@H](C(=O)N2CCCCC2)[C@@]2(CCc3ccccc3)c3[nH]c4ccc(Cl)cc4c3CCN2C1=O)NCCC1=CCCCC1` was “inactive”.
On to `O=S(=O)(Nc1cccc2cccnc12)c1ccccc1`, for which the EC50 was 4.18 µM.
For `Cc1c(NC(=O)CSc2cccc3cccnc23)c(=O)n(-c2ccccc2)n1C` the value was 6.53 µM.
The value for `COc1ccccc1-c1cc(C(F)(F)F)nc(S(=O)(=O)CCCC(=O)NCc2ccc(F)cc2)n1` was 7.58 µM.
With `COC(=O)[C@@H]1[C@@H](C#N)C2(c3ccccc3-c3ccccc32)N(c2ccc(Cl)cc2)N1C#N`, the EC50 is 13 µM.
For `CC(=O)/C(=N\Nc1ccc(Cl)cc1Cl)Sc1cccc2cccnc12` the value was 3.26 µM.
For `CN1CCN(c2ccc(NC(=O)c3ccc([N+](=O)[O-])o3)cc2Cl)CC1` the value was 0.42 µM.
For `CCOC(=O)c1ccc(N2C(=O)C=CC2=O)cc1` the value was > 80 µM (inactive); for `Cc1ccc(-c2cc(NC(=O)CCl)n(-c3ccccc3)n2)cc1`, 6.42 µM.
Turning to `CN(c1ccccc1)S(=O)(=O)c1cccc(C(=O)NCCc2ccc(O)c(O)c2)c1`, the EC50 was 7.53 µM.
With `Oc1ccc(-c2csc(Nc3ccccn3)n2)cc1O`, the EC50 was 3.7 µM.
In the case of `CC(C)c1ccc(N2C(=O)NC(=O)/C(=C\C=C\c3ccco3)C2=O)cc1`, the EC50 is 9.13 µM.
With `CC(C)N=c1scc(-c2ccco2)n1/N=C/c1ccc(O)c(O)c1`, the EC50 was 1.1 µM.
The value for `CC1CCN(Cc2c(C(=O)N/N=C/c3ccc(C(C)(C)C)cc3)nnn2-c2nonc2N)CC1` was 8.4 µM.
On to `O=C(Nc1ccc(C(F)(F)F)cc1)c1cc(-c2cccnc2)nc2ccc(Br)cc12`, for which the EC50 was 8.66 µM.
For `O=C(c1cccs1)N(C(=O)c1cccs1)c1ccc(Br)cn1` the value was 13.9 µM.
Regarding `COc1ccc(N2C(=O)/C(=C/c3cccs3)C(=O)NC2=S)cc1`, the EC50 was 9.09 µM.
For `C=CCn1nc([N+](=O)[O-])nc1Sc1cccc2cccnc12` the value was 6.67 µM.
`CCOC(=O)c1sc(N(Cc2ccccc2)C(=O)CCl)nc1C`: the EC50 is 7.96 µM.
Consider `O=C(N/N=C(\c1ccccc1)c1cccnc1)c1cccc(F)c1`, for which the EC50 is 9.74 µM.
The value for `CCOC(=O)C(=Cc1ccc(OCc2ccc([N+](=O)[O-])cc2)c(OC)c1)C(=O)OCC` was 6.51 µM; that for `COc1cc(C(=O)Oc2c(CN3CCOCC3)cc(Cl)c3cccnc23)cc(OC)c1OC` was “inactive”.
`COc1ccc(C(=O)C(CN2CCOCC2)c2ccccc2)cc1` (stereo not given): the EC50 result was “inactive”.
For `Cc1ccc(S(=O)(=O)Nc2cccc3cccnc23)cc1` the value was 4.41 µM.
For `O=C(N/N=C\c1cc2c(cc1Cl)OCO2)c1ccc(Br)s1` the value was > 80 µM (inactive); for `CC1=NOC(=O)/C1=C\c1ccc(-c2cccc(Cl)c2)o1`, 13.1 µM.
In the case of `CCN(CC)c1ccc(/C=C2\C(=O)N(c3nnc(C)c(=O)[nH]3)N=C2C)cc1`, the EC50 entry is “inactive”.
For `CC(C)N=c1scc(-c2cccs2)n1/N=C/c1ccc(O)c(O)c1O` the value was 11.6 µM.
For `O=C(Nc1ccc2oc(-c3ccc4ccccc4c3)nc2c1)c1ccc2c(c1)OCCO2` the value was 19.8 µM; for `O=C(/C(=C/c1cccc(Cl)c1)c1nc2ccccc2[nH]1)c1ccccc1`, 6.66 µM.
For `Cc1ccc(-c2nc(NC(=O)c3nn(C)cc3[N+](=O)[O-])sc2C)cc1` the value was 8.48 µM; for `CC1=CC(=O)C(C(C)C)=C/C1=N/OC(=O)c1cccc([N+](=O)[O-])c1`, > 80 µM (inactive).
In the case of `Cc1cccc(Cn2cc(/C=C/[N+](=O)[O-])c3ccccc32)c1`, the EC50 was 7.81 µM.
Regarding `CC(C)[C@H](NC(=O)OC(C)(C)C)c1nnc(S(=O)(=O)Cc2c(F)cccc2Cl)o1`, the EC50 was > 80 µM (inactive).
For `COc1ccc(/C=C/c2nc3cc(-c4ccccc4)ccc3o2)cc1O` the value was 12.7 µM.
As for `CCOc1ccc2nc(SC3CC(=O)N(c4ccc(C)cc4)C3=O)sc2c1` (stereo not given), the EC50 is > 80 µM (inactive).
In the case of `CCOC(=O)/C=c1\s/c(=C\c2ccc3cc(OC)ccc3c2)c(=O)n1CC(=O)NCC1CCCO1` (stereo not given), the EC50 was 10.7 µM.
The value for `COc1cc(C(=O)Sc2ccc(Cl)cc2)cc(OC)c1OC` was 15 µM; that for `O=C(/C=C\c1ccccc1OC(=O)c1ccccc1F)c1cc2ccccc2o1` was 14 µM.
For `CCCN(CCC)C(=O)c1cc([N+](=O)[O-])cc2c1-c1ccc([N+](=O)[O-])cc1C2=C(C#N)C#N` the value was 13.3 µM; for `Cc1ccc(S(=O)(=O)Nc2cccc3cccnc23)c([N+](=O)[O-])c1`, 7.17 µM; for `O=C(Oc1c(CN2CCOCC2)cc(Cl)c2cccnc12)c1ccccc1F`, 18.2 µM.
For `O=[N+]([O-])c1cc(O)c2ncccc2c1`, the EC50 was 13.3 µM.
The value for `COc1ccc(N=Cc2c(O)c3ccccc3oc2=O)cc1` was 8.64 µM; that for `COc1ccc(C(=O)Nc2ccccc2C(=O)N/N=C/c2ccccn2)cc1OC` was 6.44 µM; that for `CC1(C)C=Cc2c(c3c(c4c(=O)c(-c5ccc(O)cc5)coc24)OC(C)(C)CC3)O1` was 14.5 µM.
As for `CCCOc1ccc(N2C(=O)CC(N(O)c3ccccc3)C2=O)cc1` (stereo not given), the EC50 is 7.23 µM.
`Cc1ccc(C)c(NC(=S)c2ccccn2)c1`: the EC50 result was “inactive”.
Regarding `COc1cc(/C=C(/C#N)c2nc3ccccc3[nH]2)ccc1OCC(=O)Nc1ccccc1C`, the 50% effective concentration (EC50) was 3.65 µM.
The value for `O=C(c1ccc(Cl)cc1)C(CN1CCCC1)c1ccccc1` (stereo not given) was 14.3 µM; that for `CCSC1(SCC)N=C(N)C2(C#N)C(c3ccc(F)cc3)C12C#N` (stereo not given) was 11 µM.
The value for `COc1ccc(NC(=O)C(=O)N/N=C\c2ccc(CNC(=O)C(=O)Nc3ccc(C)c(C)c3)o2)c(OC)c1` was 8.25 µM.
The value for `Cc1cc(O)c(-c2cc(O)c(C)cc2O)cc1O` was > 80 µM (inactive); that for `S=C1SCN(Cc2ccco2)CN1Cc1ccco1` was 11.4 µM.
In the case of `C/C(=N\NC(=O)c1ccc(Cl)c(Cl)c1)c1ccccn1`, the EC50 is 3.26 µM.
For `COc1ccc(CCN2CCC(Nc3nc4ccccc4n3Cc3ccc(F)cc3)CC2)cc1` the value was 9.69 µM.
For `Oc1ccc(/C=N/Nc2nc(N3CCCC3)nc(N3CCCC3)n2)cc1O` the value was 2.93 µM; for `Cc1ccc(C(C[N+](=O)[O-])n2nc(C)cc2C)cc1` (stereo not given), 9.75 µM.
With `COc1ccccc1N1CCN(Cc2ccc(O)c3ncccc23)CC1`, the EC50 is 14.7 µM.
Consider `CC1(C)CC(=O)C(=Cc2cn(-c3ccccc3)nc2-c2ccc(Cl)cc2)C(=O)C1`, for which the EC50 was 6.07 µM.
Regarding `Cc1cccc(N=Nc2ccc(O)c3ncccc23)c1`, the EC50 was 7.28 µM.
On to `CC(=O)Nc1ccc(N=Cc2c(O)c(C(=O)Nc3ccccc3)cc3ccccc23)cc1`, for which the EC50 result is “inactive”.
Regarding `CN1/C(=C\C(=O)COC(=O)c2ccc(O)c(O)c2)C(C)(C)c2ccccc21`, the EC50 is 6.67 µM.
Turning to `COc1ccccc1/C=N\Nc1cc(C)nc(-n2nc(C)cc2C)n1`, the EC50 is 13.9 µM.
For `COc1c(Cl)cc(Cl)cc1/C=C/C(=O)c1ccc(NC(=O)c2cccs2)cc1`, the EC50 was 4.63 µM.
The value for `O=C(CCN1C(=O)C2C3C=CC(C4CC34)C2C1=O)Oc1cccc2cccnc12` (stereo not given) was 11.2 µM; that for `COc1cc(/C=C(/C#N)c2nc3ccccc3[nH]2)ccc1OCC(=O)Nc1ccccc1C(C)C` was 8.27 µM; that for `Cc1cccc(CSc2cccc3cccnc23)c1` was 7.72 µM.
In the case of `CC1CCC/C=C/C2CC(O)CC2C(O)/C=C/C(=O)O1` (stereo not given), the EC50 was 1.34 µM.
In the case of `Cc1ccc(N2C(=O)NC(=O)/C(=C/C=C/c3ccco3)C2=O)cc1`, the EC50 was 11.5 µM.
Turning to `Cc1ccccc1CS(=O)(=O)c1ncc(Cl)c(C(=O)Nc2ccc(F)cc2)n1`, the EC50 was > 80 µM (inactive).
For `CCc1nn(-c2cc(Oc3cccc4ccccc34)nc(-c3ccccc3)n2)c(N)c1C#N` the value was “inactive”; for `CCOC(=O)c1c2ccc(OCC(=O)N/N=C/c3ccc(C)cc3)cc2n2ccccc12`, > 80 µM (inactive).
For `COc1ccc(C(c2c(C)[nH]n(C(N)=S)c2=O)C(C#N)C#N)cc1` (stereo not given) the value was “inactive”.
